Test [1] concerns the target T1, human CB1 receptor (Homo sapiens, UniProt P21554). Description: Human CB1 receptor binding, [3H] CP-55,940 displacement on HEK cell membranes. Also noted: expressed in transfected cells; host or cells: HEK cells, doxycycline-induced; membrane preparation. In a few lines:
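Radioligand displacement: [3H] CP-55,940 at […] final, 1 μg membrane protein per well from HEK cells with tetracycline-inducible human CB1, 60 min at room temperature, pH 7.4 Tris/NaCl/MgCl2/EGTA/BSA buffer. 50 μM WIN-55,212-2 set nonspecific binding; bound label filtered, counted, and fitted for EC50 and Ki values.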

In test [2] the target is T1, human CB1 receptor. Description: [35S] GTPγS binding on membranes of CHO cells expressing the human CB1 receptor (agonism). Set-up: expressed in transfected cells; membrane preparation. In kind it is biochemical. The method, boiled down: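 Membranes from human CB1-expressing CHO cells (5 μg/well) incubated with test compound and [35S]GTPγS in 50 mM Tris pH 7.4, 100 mM NaCl, 3 mM MgCl2, 0.2 mM EGTA, 0.04% BSA for 45 min at 37 °C. Bound label collected by filtration, scintillation counted; EC50 from curve fits.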
Background: GTPγS resists hydrolysis and so accumulates on activated G proteins.

The mark [3] stands for this setting: GTPγS EC50, human CB1, CHO cell membranes.
[4] abbreviates: human CB1, CHO cell membranes, read-out: GTPγS EC50.

The structures appear in SMILES notation. Like-named read-outs stand apart in the source and are kept apart here.

In general, Ki refers to the equilibrium dissociation constant of an inhibitor or competing ligand from its target. As usually defined, the EC50 is the concentration at which the effect is half-maximal.

T1 sequence (P21554 whole entry): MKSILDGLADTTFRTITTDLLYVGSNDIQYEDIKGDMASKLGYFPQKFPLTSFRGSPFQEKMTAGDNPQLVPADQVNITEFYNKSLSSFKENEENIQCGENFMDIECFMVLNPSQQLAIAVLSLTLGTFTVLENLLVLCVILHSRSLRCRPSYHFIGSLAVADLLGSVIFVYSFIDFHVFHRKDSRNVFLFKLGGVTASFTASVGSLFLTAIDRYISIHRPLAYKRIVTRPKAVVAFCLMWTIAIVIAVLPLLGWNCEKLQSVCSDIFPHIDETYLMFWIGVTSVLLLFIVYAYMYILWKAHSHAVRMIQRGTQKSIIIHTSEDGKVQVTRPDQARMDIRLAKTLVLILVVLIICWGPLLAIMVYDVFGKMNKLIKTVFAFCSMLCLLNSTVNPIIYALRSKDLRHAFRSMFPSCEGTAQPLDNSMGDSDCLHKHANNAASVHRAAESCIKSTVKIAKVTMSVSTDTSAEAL

As to `CC(C)(C)C(NC(=O)c1nn(Cc2ccc(C#N)cc2)c2c(Cl)cccc12)C(=O)NCC(O)CO` (stereo not shown) [Example 203], affinity in test [1] (CB1 Ki) was put at a Ki of 10.2 nM. A half-maximal effect in test [2] (setting [3]) (EC50) was put at 63.2 nM.

Compound `CC(C)(C)[C@H](NC(=O)c1nn(Cc2ccc(F)cc2)c2ccccc12)C(=O)NCC1CCOCC1` [Example 211] came in with a Ki in test [1] (CB1 Ki) of 3.08 nM. Also, the EC50 in test [2] (setting [3]) was determined as 18.3 nM.

Take `CC(C)(C)[C@H](NC(=O)c1nn(Cc2ccc(C#N)cc2)c2c(F)cccc12)C(=O)N1Cc2ccccc2C1` [Example 213]: in test [1] (read-out: CB1 Ki), the Ki worked out at 15.7 nM. In addition, the EC50 in test [2] (setting [4]) is 57.7 nM.

Regarding `CC(C)(C)[C@H](NC(=O)c1nn(Cc2ccc(C#N)cc2)c2c(F)cccc12)C(=O)N1CC(O)C1` [Example 214], in test [1] (CB1 Ki), the Ki stood at 3.87 nM. In test [2] (setting [3]), this compound had an EC50 of 23.4 nM.

With `CC(C)(C)[C@H](NC(=O)c1nn(Cc2ccc(C#N)cc2)c2c(F)cccc12)C(=O)N[C@@H](CO)c1ccccc1` [Example 215], in test [1] (read-out: CB1 Ki), the Ki came to 7.69 nM. For the same compound, the EC50 in test [2] (setting [4]) turned out to be 41.3 nM.

Take `CC(C)(C)[C@H](NC(=O)c1nn(Cc2ccc(F)cc2)c2ccccc12)C(=O)NCc1nn[nH]n1` [Example 218]: the Ki in test [1] (CB1 Ki) worked out at 7.92 nM. The compound further came in with an EC50 in test [2] (setting [3]) of 360 nM.

On to `CC(C)(C)[C@H](NC(=O)c1nn(Cc2ccc(F)cc2)c2ccccc12)C(=O)N1CCN(C(N)=O)CC1` [Example 220], for which the Ki in test [1] (read-out: CB1 Ki) came to 1.26 nM. Besides, the EC50 in test [2] (setting [4]) amounted to 3.78 nM.

With `CC(C)(C)[C@H](NC(=O)c1nn(Cc2ccc(F)cc2)c2ccccc12)C(=O)N1CCC(CO)CC1` [Example 223], the Ki in test [1] (CB1 Ki) was 1.12 nM. This compound also came in with an EC50 in test [2] (setting [3]) of 4.76 nM.

In the case of `CC(C)(C)[C@H](NC(=O)c1nn(Cc2ccc(F)cc2)c2ccccc12)C(=O)N1CCC(CCO)CC1` [Example 224], in test [1] (read-out: CB1 Ki), the Ki stood at 6.77 nM. Further, the EC50 in test [2] (setting [4]) came to 19.3 nM.

As for `CC(C)(C)[C@H](NC(=O)c1nn(Cc2ccc(F)cc2)c2ccccc12)C(=O)N1CCC(C(N)=O)CC1` [Example 225], in test [1] (read-out: CB1 Ki), the Ki was determined as 6.3 nM. Moreover, the EC50 in test [2] (setting [4]) stood at 26.9 nM.

Take `CC(C)(C)[C@H](NC(=O)c1nn(Cc2ccc(F)cc2)c2c(Cl)cc(Cl)cc12)C(N)=O` [Example 226]: the Ki in test [1] (CB1 Ki) came out at 0.18 nM. In addition, the response in test [2] (setting [3]) was half-maximal at 0.73 nM (EC50).

In the case of `CC(C)(C)[C@H](NC(=O)c1nn(Cc2ccc(F)cc2)c2ccccc12)C(=O)N1CCN(C(=O)CCC(N)=O)CC1` [Example 228], the Ki in test [1] (read-out: CB1 Ki) was found to be 4.26 nM. For the same compound, in test [2] (setting [4]), the EC50 came to 15.1 nM.

Regarding `CC(C)(C)[C@H](NC(=O)c1nn(Cc2ccc(F)cc2)c2ccccc12)C(=O)N[C@@H](CO)C(N)=O` [Example 230], in test [1] (CB1 Ki), affinity was put at a Ki of 6.5 nM. Further, the EC50 in test [2] (setting [3]) was 31.4 nM.

Regarding `CC(C)(C)[C@H](NC(=O)c1nn(Cc2ccc(F)cc2)c2ccccc12)C(=O)NCCc1nnc(C(N)=O)o1` [Example 231], the Ki in test [1] (read-out: CB1 Ki) came out at 2.25 nM. Also, the EC50 in test [2] (setting [4]) stood at 5.12 nM.

Take `CC(C)(C)[C@H](NC(=O)c1nn(Cc2ccc(F)cc2)c2ccccc12)C(=O)N1CCN(CC(O)CO)CC1` (stereo partly shown) [Example 233]: the Ki in test [1] (read-out: CB1 Ki) came to 2.45 nM. Moreover, the EC50 in test [2] (setting [4]) stood at 11.5 nM.

In turn, `COC(=O)[C@@H](CO)NC(=O)[C@@H](NC(=O)c1nn(Cc2ccc(F)cc2)c2ccccc12)C(C)(C)C` [Example 234] displayed a Ki in test [1] (CB1 Ki) of 13.4 nM. Moreover, the EC50 in test [2] (setting [3]) was determined as 36.1 nM.

The compound `COC(=O)[C@H](CO)NC(=O)[C@@H](NC(=O)c1nn(Cc2ccc(F)cc2)c2ccccc12)C(C)(C)C` [Example 236] returned a Ki in test [1] (CB1 Ki) of 0.94 nM. In test [2] (setting [3]), this compound showed an EC50 of 3.91 nM.

As for `COC(=O)[C@@H](O)CNC(=O)[C@@H](NC(=O)c1nn(Cc2ccc(F)cc2)c2ccccc12)C(C)(C)C` [Example 238], the Ki in test [1] (CB1 Ki) was 6.46 nM. Moreover, the EC50 in test [2] (setting [3]) turned out to be 25.7 nM.

`CC(C)(C)[C@H](NC(=O)c1nn(Cc2ccc(F)cc2)c2ccccc12)C(=O)NC(CO)CO` [Example 241]: the Ki in test [1] (CB1 Ki) was determined as 1.65 nM. The EC50 in test [2] (setting [3]) is 5.72 nM.

`CC(C)(C)[C@H](NC(=O)c1nn(Cc2ccc(F)cc2)c2ccccc12)C(=O)N1CCOCC1` [Example 242] showed a Ki in test [1] (CB1 Ki) of 0.36 nM. The compound further registered an EC50 in test [2] (setting [3]) of 3.37 nM.

As for `CC(C)(C)[C@H](NC(=O)c1nn(Cc2ccc(C#N)cc2)c2ccccc12)C(=O)N1CCOCC1` [Example 243], in test [1] (CB1 Ki), affinity was put at a Ki of 11.3 nM. Besides, the EC50 in test [2] (setting [3]) was determined as 91.3 nM.

For the compound `CC(C)(C)[C@H](NC(=O)c1nn(Cc2ccc(F)cc2)c2ccccc12)C(=O)N1CCN(S(C)(=O)=O)CC1` [Example 244], in test [1] (read-out: CB1 Ki), the Ki came out at 2.42 nM. Further, the EC50 in test [2] (setting [4]) came out at 16.2 nM.

In the case of `CC(C)(C)[C@H](NC(=O)c1nn(Cc2ccc(F)cc2)c2ccccc12)C(=O)N1CCN(S(=O)(=O)C2CC2)CC1` [Example 245], the Ki in test [1] (read-out: CB1 Ki) turned out to be 2.61 nM. In test [2] (setting [4]), the EC50 came to 12.4 nM.
